Results: patent US11066368B2, “Process for the preparation and particle size reduction of pirfenidone” (Laurus Labs Limited, priority 2016, dated 2021)

How the values were obtained:
[1] = Particle size distribution after wet milling in colloid mill (IKA MK 2000/05); assay type: physicochemical; conditions: water
Method: (§1) As used herein, the term “particle size distribution” is expressed in terms of D90, D50 and D10, which corresponds to the diameter of 90 percent by volume of the particles, 50 percent by volume of the particles and 10 percent by volume of the particles are present, respectively.
(§2) The particle size distribution of pirfenidone is measured utilizing: Instrument model: Malvern; Mastersizer 3000; particle refraction index of sample: 1.700; Absorption: 0.01 and Analysis model: general purpose, normal sensitivity, non-spherical particles.
Pirfenidone (Particle size distribution: D10: 1330 μm; D50: 1950 μm and D90: 2840 μm) and Water (3 vol) were charged into IKA colloid mill at 25° C. to 35° C. and circulated the reaction mass at 25° C. to 35° C. till required particle size was obtained. Particle size distribution of the sample with different time interval was monitored by collecting the sample from reaction mass. After achieving the required particle size, stirred the reaction mixture for 30-60 min at 25° C. to 35° C. Further, the reaction mixture temperature was allowed to cool to 0° C. to 5° C. and stirred for 2-3 hrs at same temperature. Filter the solid and washed with the wet cake with chilled water (0.5 vol), dried the solid in an oven under vacuum at 60° C. for 4-6 hours.
The following examples were performed using the above described process with different circulation time and different rpm and obtained results are tabulated as below: […]

[2] = Particle size distribution of unmilled input pirfenidone; assay type: physicochemical; conditions: input material before wet milling (Reference Example 5)
Method: as §1, §2
Dissolving crude Pirfenidone (50 g) in ethyl acetate (100 mL) at 65-75° C. and the reaction mass was treated with activated carbon (5 g) and filtered through a short bed of Hyflo. The filtrate was partially concentrated, under reduced pressure while maintain temperature below 60° C. The mixture was gradually allowed to cool to 30±5° C. and then stirred for another 30-60 min. The suspension was again allowed to cool to 0-5° C. and maintained for another 2-3 h, at the same temperature. The precipitated material was filtered and then dried at 60±5° C., for 6-8 h, to afford Pirfenidone as white colored powder (HPLC purity 99.9%; dimer content 0.03%). Yield: 45 g.

[3] = Minimum ignition energy test by MIKE3; assay type: physicochemical; conditions: dust cloud, dried at 50° C., sieved through 63μ
Method: This test was performed based on international test method VDI 2263 part 1.2.5 using MIKE3. Pirfenidone was dried at 50° C. under vacuum, sieved through 63μ sieve. The product was converted into a dust cloud in glass cylindrical tube with compressed air. The spark for ignition was provided with moving electrodes assembly at different energy levels from 1 mJ to 1000 mJ. The energy just sufficient to ignite the dust under ignition was determined. This ignition energy was then successively halved with variation of the dust concentration and the ignition delay time in a series of tests until no ignition takes place in at least 10 successive experiments. The minimum ignition energy MIE lies between the lowest energy value at which ignition occurred and at the energy value at which no ignition observed for 10 successive experiments. The recommendations for interpreting MIE results are based on energy levels available on MIKE 3 apparatus. According to usual practice, MIE can be ranked as follow: […]

[4] = milled through a loop mill, US 8,519,140; cited from earlier work
[5] = 3000 rpm, circulation time 60 mim
[6] = 3000 rpm, circulation time 120 mim
[7] = 3000 rpm, circulation time 30 min
[8] = 5000 rpm, circulation time 5 min
[9] = 5000 rpm, circulation time 60 min
[10] = 6000 rpm, circulation time 45 min
[11] = 6000 rpm, circulation time 1 hour
[12] = 6000 rpm, circulation time 2 hours, listed as 1A, 20 kg pirfenidone input
[13] = 6000 rpm, circulation time 2 hours, listed as 1B, 200 kg pirfenidone input
[14] = 6000 rpm, circulation time 3 hours, listed as 1A, 20 kg pirfenidone input
[15] = 6000 rpm, circulation time 3 hours, listed as 1B, 200 kg pirfenidone input
[16] = 6000 rpm, circulation time 4 hours, listed as 1A, 20 kg pirfenidone input
[17] = 6000 rpm, circulation time 4 hours, listed as 1B, 200 kg pirfenidone input
[18] = 6000 rpm, circulation time 5 hours, listed as 1A, 20 kg pirfenidone input
[19] = 6000 rpm, circulation time 5 hours, listed as 1B, 200 kg pirfenidone input
[20] = 6000 rpm, circulation time 6 hours, listed as 1A, 20 kg pirfenidone input
[21] = 6000 rpm, circulation time 6 hours, listed as 1B, 200 kg pirfenidone input
[22] = 6000 rpm, circulation time 7 hours
[23] = 6000 rpm, circulation time 8 hours, listed as 1B, 200 kg pirfenidone input
[24] = 6000 rpm, circulation time 8 hours, listed as 1C, 80 kg pirfenidone input
[25] = 6000 rpm, circulation time 9 hours
[26] = 6000 rpm, circulation time 10 hours, listed as 1B, 200 kg pirfenidone input
[27] = 6000 rpm, circulation time 10 hours, listed as 1C, 80 kg pirfenidone input
[28] = 6000 rpm, circulation time 12 hours, listed as 1B, 200 kg pirfenidone input
[29] = 6000 rpm, circulation time 12 hours, listed as 1C, 80 kg pirfenidone input
[30] = 6000 rpm, circulation time 14 hours
[31] = 6000 rpm, circulation time 16 hours
[32] = 6000 rpm, circulation time 19 hours
[33] = 8000 rpm, circulation time 5 min

## Cc1ccc(=O)n(-c2ccccc2)c1 [Pirfenidone, 5-methyl-1-phenyl-2-1(H)-pyridone]
[1]; [5]
  PSD D10: 12 μm
  PSD D50: 33 μm
  PSD D90: 123 μm
[1]; [6]
  PSD D10: 13 μm
  PSD D50: 33 μm
  PSD D90: 82 μm
[1]; [7]
  PSD D10: 28 μm
  PSD D50: 87 μm
  PSD D90: 185 μm
[1]; [8]
  PSD D10: 11 μm
  PSD D50: 40 μm
  PSD D90: 99 μm
[1]; [9]
  PSD D10: 11 μm
  PSD D50: 36 μm
  PSD D90: 89 μm
[1]; [10]
  PSD D10: 41 μm
  PSD D50: 48 μm
  PSD D90: 285 μm
[1]; [11]
  PSD D10: 30 μm
  PSD D50: 105 μm
  PSD D90: 206 μm
[1]; [12]
  PSD D10: 28 μm
  PSD D50: 72 μm
  PSD D90: 165 μm
[1]; [13]
  PSD D10: 34 μm
  PSD D50: 124 μm
  PSD D90: 257 μm
[1]; [14]
  PSD D10: 26 μm
  PSD D50: 61 μm
  PSD D90: 143 μm
[1]; [15]
  PSD D10: 34 μm
  PSD D50: 116 μm
  PSD D90: 236 μm
[1]; [16]
  PSD D10: 23 μm
  PSD D50: 54 μm
  PSD D90: 129 μm
[1]; [17]
  PSD D10: 32 μm
  PSD D50: 106 μm
  PSD D90: 222 μm
[1]; [18]
  PSD D10: 22 μm
  PSD D50: 53 μm
  PSD D90: 117 μm
[1]; [19]
  PSD D10: 33 μm
  PSD D50: 106 μm
  PSD D90: 217 μm
[1]; [20]
  PSD D10: 21 μm
  PSD D50: 49 μm
  PSD D90: 107 μm
[1]; [21]
  PSD D10: 29 μm
  PSD D50: 101 μm
  PSD D90: 200 μm
[1]; [22]
  PSD D10: 31 μm
  PSD D50: 94 μm
  PSD D90: 200 μm
[1]; [23]
  PSD D10: 28 μm
  PSD D50: 84 μm
  PSD D90: 187 μm
[1]; [24]
  PSD D10: 21 μm
  PSD D50: 57 μm
  PSD D90: 132 μm
[1]; [25]
  PSD D10: 28 μm
  PSD D50: 80 μm
  PSD D90: 180 μm
[1]; [26]
  PSD D10: 27 μm
  PSD D50: 69 μm
  PSD D90: 155 μm
[1]; [27]
  PSD D10: 22 μm
  PSD D50: 55 μm
  PSD D90: 122 μm
[1]; [28]
  PSD D10: 25 μm
  PSD D50: 61 μm
  PSD D90: 150 μm
[1]; [29]
  PSD D10: 22 μm
  PSD D50: 54 μm
  PSD D90: 121 μm
[1]; [30]
  PSD D10: 21 μm
  PSD D50: 47 μm
  PSD D90: 98 μm
[1]; [31]
  PSD D10: 21 μm
  PSD D50: 47 μm
  PSD D90: 96 μm
[1]; [32]
  PSD D10: 22 μm
  PSD D50: 46 μm
  PSD D90: 93 μm
[1]; [33]
  PSD D10: 9 μm
  PSD D50: 35 μm
  PSD D90: 85 μm
[2]
  Particle size distribution D10: 1330 μm
  Particle size distribution D50: 1950 μm
  Particle size distribution D90: 2840 μm
[3]
  Es: 1.7 mJ
  Minimum ignition energy MIE: 1.7 mJ
[4]
  particle size: less than 150 μm
